Results reported in ChEMBL document CHEMBL4808202, “Evaluation of artemisinin derivative artemether as a fluconazole potentiator through inhibition of Pdr5” (2021).
Activity calls are given as the source filed them. The rule behind the calls is not given here.

What was measured:
Saccharomyces cerevisiae [1] = assay: Inhibition of PDR5 in Saccharomyces cerevisiae BY4742 assessed as inhibition of R6G efflux at 400 uM incubated for 4 hrs followed by R6G addition and measured after 1.5 hrs by fluorescence based analysis; details: time 5.5 hrs
Saccharomyces cerevisiae [2] = assay: Antifungal activity against Saccharomyces cerevisiae harboring nft1 delta mutant assessed as fungal growth at 1600 uM measured after 24 hrs by absorbance based analysis relative to control; assay type: functional
Saccharomyces cerevisiae [3] = assay: Potentiation of fluconazole-induced antifungal activity against Saccharomyces cerevisiae BY4742 assessed as inhibition of fungal growth at 100 uM measured after 24 hrs in presence of fluconazole by absorbance based analysis relative to fluconazole-treated control; assay type: functional
Saccharomyces cerevisiae [4] = assay: Antifungal activity against Saccharomyces cerevisiae BY4742 assessed as inhibition of fungal growth at 100 uM measured after 24 hrs by absorbance based analysis relative to vehicle-treated control; assay type: functional
Candida albicans [5] = assay: Potentiation of micafungin-induced antifungal activity against Candida albicans SC5314 assessed as fungal growth at 100 microM measured after 24 hrs in presence of micafungin by absorbance based analysis relative to micafungin-treated control; assay type: functional
Saccharomyces cerevisiae [6] = assay: Antifungal activity against Saccharomyces cerevisiae harboring bpt1 delta mutant assessed as fungal growth at 1600 uM measured after 24 hrs by absorbance based analysis relative to control; assay type: functional
[7] = system: Saccharomyces cerevisiae BY4741; assay: Inhibition of PDR5 in Saccharomyces cerevisiae BY4741 assessed as intracellular accumulation of fluconazole at 400 uM measured per gm of cells after 4 hrs by HPLC analysis (reference value: 11.3 nmol); assay type: cell-based
Candida albicans [8] = assay: Antifungal activity against Candida albicans SC5314 assessed as inhibition of fungal growth by measuring decrease in OD600 at 100 microM measured after 24 hrs by absorbance based analysis; assay type: functional
Candida tropicalis [9] = assay: Potentiation of fluconazole-induced antifungal activity against Candida tropicalis NL001 assessed as fungal growth at 100 uM measured after 24 hrs in presence of fluconazole by absorbance based analysis relative to vehicle treated control; assay type: functional
Saccharomyces cerevisiae [10] = assay: Antifungal activity against Saccharomyces cerevisiae harboring ybt1 delta mutant assessed as fungal growth at 1600 uM measured after 24 hrs by absorbance based analysis relative to control; assay type: functional
Saccharomyces cerevisiae [11] = assay: Antifungal activity against Saccharomyces cerevisiae harboring pdr11 delta mutant assessed as fungal growth at 1600 uM measured after 24 hrs by absorbance based analysis relative to control; assay type: functional
Candida parapsilosis [12] = assay: Potentiation of fluconazole-induced antifungal activity against Candida parapsilosis NL001 assessed as fungal growth at 100 uM measured after 24 hrs in presence of fluconazole by absorbance based analysis relative to fluconazole-treated control; assay type: functional
Saccharomyces cerevisiae [13] = assay: Inhibition of PDR5 in Saccharomyces cerevisiae BY4742 assessed as inhibition of R6G efflux incubated for 4 hrs followed by R6G addition and measured after 1.5 hrs by fluorescence based analysis; details: dose 100-400 µM, time 5.5 hrs
Saccharomyces cerevisiae [14] = assay: Antifungal activity against Saccharomyces cerevisiae harboring snq2 delta mutant assessed as fungal growth at 1600 uM measured after 24 hrs by absorbance based analysis relative to control; assay type: functional
Candida albicans [15] = assay: Antifungal activity against Candida albicans SC5314 assessed as inhibition of fungal filamentation in Spider medium at 100 uM incubated for 1 hr by microscopic analysis; assay type: functional, organism-based
Candida albicans [16] = assay: Antifungal activity against fluconazole-resistant Candida albicans CNL012 assessed as fungal growth at 100 uM measured after 24 hrs by absorbance based analysis relative to vehicle-treated control; assay type: functional
Candida albicans [17] = assay: Potentiation of fluconazole-induced antifungal activity against Candida albicans SC5314 assessed as inhibition of fungal filamentation by measuring reduction in fungal hyphae growth in Spider medium at 100 uM incubated for 1 hr in presence of fluconazole by microscopic analysis; assay type: functional, organism-based
[Candida] auris [18] = Potentiation of fluconazole-induced antifungal activity against Candida auris NL002 assessed as fungal growth at 100 uM measured after 24 hrs in presence of fluconazole by absorbance based analysis relative to fluconazole-treated control; assay type: functional, Candidozyma auris
Saccharomyces cerevisiae [19] = assay: Antifungal activity against Saccharomyces cerevisiae harboring yor1 delta mutant assessed as fungal growth at 1600 uM measured after 24 hrs by absorbance based analysis relative to control; assay type: functional
Saccharomyces cerevisiae [20] = assay: Antifungal activity against Saccharomyces cerevisiae YNL013 harboring pdr5 delta mutant assessed as inhibition of fungal growth at 100 uM measured after 24 hrs by absorbance based analysis; assay type: functional, organism-based
Saccharomyces cerevisiae [21] = assay: Antifungal activity against Saccharomyces cerevisiae harboring pdr15 delta mutant assessed as fungal growth at 1600 uM measured after 24 hrs by absorbance based analysis relative to control; assay type: functional
Saccharomyces cerevisiae [22] = assay: Antifungal activity against Saccharomyces cerevisiae harboring pdr12 delta mutant assessed as fungal growth at 1600 uM measured after 24 hrs by absorbance based analysis relative to control; assay type: functional
Candida parapsilosis [23] = assay: Antifungal activity against Candida parapsilosis NL001 assessed as fungal growth at 100 uM measured after 24 hrs by absorbance based analysis relative to vehicle-treated control; assay type: functional
[Candida] auris [24] = Antifungal activity against Candida auris NL002 assessed as fungal growth at 100 uM measured after 24 hrs by absorbance based analysis relative to vehicle-treated control; assay type: functional, Candidozyma auris
Saccharomyces cerevisiae [25] = assay: Antifungal activity against Saccharomyces cerevisiae harboring ynr070w delta mutant assessed as fungal growth at 1600 uM measured after 24 hrs by absorbance based analysis relative to control; assay type: functional
Candida albicans [26] = assay: Recovery of fluconazole susceptibility against fluconazole-resistant Candida albicans CNL012 assessed as inhibition of fungal growth at 100 uM measured every 15 mins for 24 hrs by absorbance based analysis; assay type: functional, organism-based
Saccharomyces cerevisiae [27] = assay: Antifungal activity against Saccharomyces cerevisiae harboring pdr5 delta mutant assessed as fungal growth at 1600 uM measured after 24 hrs by absorbance based analysis relative to control; assay type: functional
Candida albicans [28] = assay: Potentiation of fluconazole-induced antifungal activity against Candida albicans SC5314 assessed as inhibition of fungal filamentation by measuring reduction in fungal hyphae growth in YEPD containing 10% serum medium at 100 uM incubated for 1 hr in presence of fluconazole by microscopic analysis; assay type: functional, organism-based
Candida albicans [29] = assay: Potentiation of fluconazole-induced antifungal activity against Candida albicans CNL002 harboring cdr1 delta mutant assessed as inhibition of fungal growth at 100 uM measured after 24 hrs by absorbance based analysis; assay type: functional, organism-based
Candida albicans [30] = assay: Potentiation of amphotericin B-induced antifungal activity against Candida albicans SC5314 assessed as fungal growth at 100 microM measured after 24 hrs in presence of amphotericin B by absorbance based analysis relative to amphotericin B-treated control; assay type: functional
Saccharomyces cerevisiae [31] = assay: Antifungal activity against Saccharomyces cerevisiae harboring adp1 delta mutant assessed as fungal growth at 1600 uM measured after 24 hrs by absorbance based analysis relative to control; assay type: functional
Candida albicans [32] = assay: Recovery of fluconazole susceptibility against fluconazole-resistant Candida albicans CNL011 assessed as inhibition of fungal growth at 100 uM measured every 15 mins for 24 hrs by absorbance based analysis; assay type: functional, organism-based
Saccharomyces cerevisiae [33] = assay: Antifungal activity against Saccharomyces cerevisiae harboring yol075c delta mutant assessed as fungal growth at 1600 uM measured after 24 hrs by absorbance based analysis relative to control; assay type: functional
Saccharomyces cerevisiae [34] = assay: Antifungal activity against Saccharomyces cerevisiae harboring pdr10 delta mutant assessed as fungal growth at 1600 uM measured after 24 hrs by absorbance based analysis relative to control; assay type: functional
Cryptococcus neoformans [35] = assay: Antifungal activity against Cryptococcus neoformans H99 assessed as inhibition of fungal growth at 0.2 uM measured every 15 mins for 24 hrs by absorbance based analysis; assay type: functional, organism-based
Saccharomyces cerevisiae [36] = assay: Antifungal activity against Saccharomyces cerevisiae harboring aus1 delta mutant assessed as fungal growth at 1600 uM measured after 24 hrs by absorbance based analysis relative to control; assay type: functional
Candida tropicalis [37] = assay: Antifungal activity against Candida tropicalis NL001 assessed as fungal growth at 100 uM measured after 24 hrs by absorbance based analysis relative to vehicle-treated control; assay type: functional
Saccharomyces cerevisiae [38] = assay: Potentiation of fluconazole-induced antifungal activity against Saccharomyces cerevisiae YNL033 overexpressing PDR5 assessed as fungal growth at 100 uM measured after 24 hrs by absorbance based analysis relative to fluconazole-treated control; assay type: functional
Candida albicans [39] = assay: Antifungal activity against Candida albicans SC5314 assessed as inhibition of fungal filamentation in YEPD containing 10% serum medium at 100 uM incubated for 1 hr by microscopic analysis; assay type: functional, organism-based
Saccharomyces cerevisiae [40] = assay: Antifungal activity against Saccharomyces cerevisiae BY4742 assessed as fungal growth at 1600 uM measured after 24 hrs by absorbance based analysis relative to control; assay type: functional
Cryptococcus neoformans [41] = assay: Potentiation of fluconazole-induced antifungal activity against Cryptococcus neoformans H99 assessed as inhibition of fungal growth at 0.2 uM measured every 15 mins for 24 hrs in presence of fluconazole by absorbance based analysis; assay type: functional, organism-based
Candida albicans [42] = assay: Potentiation of fluconazole-induced antifungal activity against Candida albicans SC5314 assessed as fungal growth at 100 microM measured after 24 hrs in presence of fluconazole by absorbance based analysis relative to fluconazole-treated control; assay type: functional
Saccharomyces cerevisiae [43] = assay: Potentiation of fluconazole-induced antifungal activity against Saccharomyces cerevisiae BY4741 assessed as fungal growth at 100 uM measured after 24 hrs by absorbance based analysis relative to fluconazole-treated control; assay type: functional
Candida albicans [44] = assay: Antifungal activity against fluconazole-resistant Candida albicans CNL011 assessed as fungal growth at 100 uM measured after 24 hrs by absorbance based analysis relative to vehicle-treated control; assay type: functional
Saccharomyces cerevisiae [45] = assay: Antifungal activity against Saccharomyces cerevisiae harboring ycf1 delta mutant assessed as fungal growth at 1600 uM measured after 24 hrs by absorbance based analysis relative to control; assay type: functional
Candida tropicalis [46] = assay: Potentiation of fluconazole-induced antifungal activity against Candida tropicalis NL001 assessed as fungal growth at 100 uM measured after 24 hrs in presence of fluconazole by absorbance based analysis relative to fluconazole-treated control; assay type: functional
Candida parapsilosis [47] = assay: Potentiation of fluconazole-induced antifungal activity against Candida parapsilosis NL001 assessed as fungal growth at 100 uM measured after 24 hrs in presence of fluconazole by absorbance based analysis relative to vehicle-treated control; assay type: functional
Saccharomyces cerevisiae [48] = assay: Antifungal activity against Saccharomyces cerevisiae harboring vmr1 delta mutant assessed as fungal growth at 1600 uM measured after 24 hrs by absorbance based analysis relative to control; assay type: functional
[Candida] auris [49] = Potentiation of fluconazole-induced antifungal activity against Candida auris NL002 assessed as fungal growth at 100 uM measured after 24 hrs in presence of fluconazole by absorbance based analysis relative to vehicle-treated control; assay type: functional, Candidozyma auris
Saccharomyces cerevisiae [50] = assay: Increase in intracellular fluconazole accumulation in Saccharomyces cerevisiae YNL032 harboring pdr5 deletion mutant at 400 uM measured after 4 hrs by HPLC analysis; assay type: functional, cell-based

CO[C@H]1O[C@@H]2O[C@@]3(C)CC[C@H]4[C@H](C)CC[C@@H]([C@H]1C)[C@@]24OO3 [ARTEMETHER]
inhibition (Saccharomyces cerevisiae [1]): Active
Activity (Saccharomyces cerevisiae [2]): 72.3%
inhibition at 100 µM (Saccharomyces cerevisiae [3]): 68.8%
inhibition at 100 µM (Saccharomyces cerevisiae [4]): 45.8%
Activity (Candida albicans [5]): 95.2%
Activity (Saccharomyces cerevisiae [6]): 71.8%
Activity [7]: 13.1 nmol
inhibition at 100 µM (Candida albicans [8]): 10.1%
Activity (Candida tropicalis [9]): 83.3%
Activity (Saccharomyces cerevisiae [10]): 69.2%
Activity (Saccharomyces cerevisiae [11]): 77.8%
Activity (Candida parapsilosis [12]): 41.5%
inhibition (Saccharomyces cerevisiae [13]): Dose-Dependent Effect
Activity (Saccharomyces cerevisiae [14]): 67.5%
Activity (Candida albicans [15]): inactive
Activity (Candida albicans [16]): 91.6%
Activity (Candida albicans [17]): Active
Activity ([Candida] auris [18]): 48.4%
Activity (Saccharomyces cerevisiae [19]): 75.4%
Activity (Saccharomyces cerevisiae [20]): Active
Activity (Saccharomyces cerevisiae [21]): 70.2%
Activity (Saccharomyces cerevisiae [22]): 71.2%
Activity (Candida parapsilosis [23]): 68.6%
Activity ([Candida] auris [24]): 57.6%
Activity (Saccharomyces cerevisiae [25]): 72.7%
Activity (Candida albicans [26]): Active
Activity (Saccharomyces cerevisiae [27]): 29.8%
Activity (Candida albicans [28]): Active
Activity (Candida albicans [29]): Active
Activity (Candida albicans [30]): 96.1%
Activity (Saccharomyces cerevisiae [31]): 68%
Activity (Candida albicans [32]): Active
Activity (Saccharomyces cerevisiae [33]): 67.9%
Activity (Saccharomyces cerevisiae [34]): 67.1%
Activity (Cryptococcus neoformans [35]): Active
Activity (Saccharomyces cerevisiae [36]): 71%
Activity (Candida tropicalis [37]): 88.1%
Activity (Saccharomyces cerevisiae [38]): 70.9%
Activity (Candida albicans [39]): inactive
Activity (Saccharomyces cerevisiae [40]): 71.9%
Activity (Cryptococcus neoformans [41]): Active
Activity (Candida albicans [42]): 52.6%
Activity (Saccharomyces cerevisiae [43]): 76.5%
Activity (Candida albicans [44]): 86.9%
Activity (Saccharomyces cerevisiae [45]): 60.3%
Activity (Candida tropicalis [46]): 81.9%
Activity (Candida parapsilosis [47]): 41.5%
Activity (Saccharomyces cerevisiae [48]): 65.6%
Activity ([Candida] auris [49]): 44.7%
Activity (Saccharomyces cerevisiae [50]): Active

C[C@@H]1CC[C@H]2[C@@H](C)C(=O)O[C@@H]3O[C@@]4(C)CC[C@@H]1[C@]32OO4 [ARTEMISININ]
Activity (Candida albicans [5]): 97.7%
inhibition at 100 µM (Candida albicans [8]): 4.9%
Activity (Candida albicans [15]): inactive
Activity (Candida albicans [17]): Active
Activity (Candida albicans [28]): Active
Activity (Candida albicans [30]): 96.1%
Activity (Candida albicans [39]): inactive
Activity (Candida albicans [42]): 22.6%

C[C@H]1[C@H](OC(=O)CCC(=O)O)O[C@@H]2O[C@@]3(C)CC[C@H]4[C@H](C)CC[C@@H]1[C@@]24OO3 [ARTESUNATE]
Activity (Candida albicans [5]): 96.9%
Activity (Candida albicans [8]): inactive
Activity (Candida albicans [15]): inactive
Activity (Candida albicans [17]): Active
Activity (Candida albicans [28]): Active
Activity (Candida albicans [39]): inactive
Activity (Candida albicans [42]): 42.9%
